According to patent publication US20080096967A1, “Formulations for Injection of Catecholic Butanes, Including Ndga Compounds, Into Animals” (priority 2005, published 2008):

Experiment: Solubility of M4N in water-insoluble lipids (visual inspection)
Type: physicochemical

For `COc1ccc(C[C@@H](C)[C@@H](C)Cc2ccc(OC)c(OC)c2)cc1OC` [Formulation M4N, meso-1,4-bis(3,4-dimethoxyphenyl)-2,3-dimethylbutane], the “Stability Time at Room Temperature” value (33% Peppermint Oil, 33% Tween ® 20, 33% PEG 400, M4N 60 mg/mL) was >3 days, the “Dissolution After Heating” value (33% Peppermint Oil, 33% Tween ® 20, 33% PEG 400, M4N 60 mg/mL, 40° C.) was “Y at 40 °C” and the “Dissolution After Heating” value (40% Peppermint Oil, 40% PEG 400, 20% Glycerol, M4N 52 mg/mL, 40° C.) was “Y at 40 °C”. The “Dissolution After Heating” value (45% Peppermint Oil, 45% PEG 400, 10% Glycerol, M4N 59 mg/mL, 40° C.) was “Y at 40 °C”, the “Stability Time at Room Temperature” value (50% Peppermint Oil, 50% PEG 300, M4N 40 mg/mL) was >7 days and the “Dissolution After Heating” value (50% Peppermint Oil, 50% PEG 300, M4N 40 mg/mL, 35° C.) was “Y at 35 °C”. The “Stability Time at Room Temperature” value (50% Peppermint Oil, 50% PEG 300, M4N 60 mg/mL) was >7 days, the “Dissolution After Heating” value (50% Peppermint Oil, 50% PEG 300, M4N 60 mg/mL, 35° C.) was “Y at 35 °C” and the “Dissolution After Heating” value (50% Peppermint Oil, 50% PEG 300, M4N 125 mg/mL, 35° C.) was “Y at 35 °C”. The “Stability Time at Room Temperature” value (50% Peppermint Oil, 50% PEG 400, M4N 40 mg/mL) was >7 days, the “Dissolution After Heating” value (50% Peppermint Oil, 50% PEG 400, M4N 40 mg/mL, 40° C.) was “Y at 40 °C” and the “Stability Time at Room Temperature” value (50% Peppermint Oil, 50% PEG 400, M4N 60 mg/mL) was >7 days. For the same molecule, the “Dissolution After Heating” value (50% Peppermint Oil, 50% PEG 400, M4N 60 mg/mL, 40° C.) was “Y at 40 °C”, the “Dissolution After Heating” value (50% Peppermint Oil, 50% PEG 400, M4N 100 mg/mL, 40° C.) was “Y at 40 °C” and the “Dissolution After Heating” value (50% Peppermint Oil, 50% PEG 400, M4N 125 mg/mL, 40° C.) was “Y at 40 °C”. For the same molecule, the “Stability Time at Room Temperature” value (50% Peppermint Oil, 50% Sesame Oil, M4N 20 mg/mL) was >3 days, the “Stability Time at Room Temperature” value (50% Peppermint Oil, 50% Sesame Oil, M4N 40 mg/mL) was >3 days and the “Dissolution After Heating” value (50% Peppermint Oil, 50% Sesame Oil, M4N 40 mg/mL, 40° C.) was “Y at 40 °C”. For the same molecule, the “Stability Time at Room Temperature” value (50% Peppermint Oil, 50% Sesame Oil, M4N 60 mg/mL) was >3 days, the “Dissolution After Heating” value (50% Peppermint Oil, 50% Sesame Oil, M4N 60 mg/mL, 40° C.) was “Y at 40 °C” and the “Stability Time at Room Temperature” value (50% Peppermint Oil, 50% Tween ® 20, M4N 40 mg/mL) was >3 days. For the same molecule, the “Dissolution After Heating” value (50% Peppermint Oil, 50% Tween ® 20, M4N 40 mg/mL, 40° C.) was “Y at 40 °C”, the “Stability Time at Room Temperature” value (50% Peppermint Oil, 50% Tween ® 20, M4N 60 mg/mL) was >3 days and the “Dissolution After Heating” value (50% Peppermint Oil, 50% Tween ® 20, M4N 60 mg/mL, 40° C.) was “Y at 40 °C”. For the same molecule, the “Dissolution After Heating” value (50% Peppermint Oil, 50% Tween ® 20, M4N 125 mg/mL, 40° C.) was “Y at 40 °C”, the “Stability Time at Room Temperature” value (60% Peppermint Oil, 40% PEG 300, M4N 60 mg/mL) was >3 days and the “Dissolution After Heating” value (60% Peppermint Oil, 40% PEG 300, M4N 60 mg/mL, 40° C.) was “Y at 40 °C”. For the same molecule, the “Dissolution After Heating” value (60% Peppermint Oil, 40% PEG 400, M4N 60 mg/mL, 40° C.) was “Y at 40 °C”, the “Stability Time at Room Temperature” value (75% Sesame Oil, 9% Tween ® 20, 16% Glycerol, M4N 24.3 mg/mL) was <7 days and the “Dissolution After Heating” value (75% Sesame Oil, 9% Tween ® 20, 16% Glycerol, M4N 24.3 mg/mL, 60° C.) was “Y at 60 °C”. The “Dissolution After Heating” value (80% Olive Oil, 20% Soybean Oil, M4N 60 mg/mL, 70° C.) was “Y at 70 °C”, the “Dissolution After Heating” value (85% Sesame Oil, 15% Tween ® 20, M4N 40 mg/mL, 45° C.) was “Y at 45 °C” and the “Dissolution After Heating” value (85% Sesame Oil, 15% Tween ® 20, M4N 60 mg/mL, 55° C.) was “Y at 55 °C”. The solution upon cooling (85% sesame oil and 15% Tween® 20, M4N 60 mg/mL (55° C.) and 40 mg/mL (45° C.)) was “did not stay in solution”, the “Stability Time at Room Temperature” value (89% Sesame Oil, 11% Tween ® 20, M4N 29 mg/mL) was >7 days and the “Dissolution After Heating” value (89% Sesame Oil, 11% Tween ® 20, M4N 29 mg/mL, 60° C.) was “Y at 60 °C”. The “Stability Time at Room Temperature” value (100% Corn Oil, M4N 1 mg/mL) was >3 days, the “Dissolution After Heating” value (100% Corn Oil, M4N 1 mg/mL, 60° C.) was “Y at 60 °C” and the “Stability Time at Room Temperature” value (100% Corn Oil, M4N 10 mg/mL) was >3 days. The “Dissolution After Heating” value (100% Corn Oil, M4N 10 mg/mL, 60° C.) was “Y at 60 °C”, the “Stability Time at Room Temperature” value (100% Corn Oil, M4N 20 mg/mL) was <3 days and the “Dissolution After Heating” value (100% Corn Oil, M4N 20 mg/mL, 60° C.) was “Y at 60 °C”. The “Stability Time at Room Temperature” value (100% Corn Oil, M4N 40 mg/mL) was <3 days, the “Dissolution After Heating” value (100% Corn Oil, M4N 40 mg/mL, 60° C.) was “Y at 60 °C” and the “Stability Time at Room Temperature” value (100% Corn Oil, M4N 50 mg/mL) was <3 days. For the same molecule, the “Dissolution After Heating” value (100% Corn Oil, M4N 50 mg/mL, 60° C.) was “Y at 60 °C”, the “Stability Time at Room Temperature” value (100% Corn Oil, M4N 60 mg/mL) was <1 days and the “Dissolution After Heating” value (100% Corn Oil, M4N 60 mg/mL, 60° C.) was “Y at 60 °C”. For the same molecule, the “Dissolution After Heating” value (100% Corn Oil, M4N 100 mg/mL, 60° C.) was “Y at 60 °C”, the “Stability Time at Room Temperature” value (100% Mineral Oil, M4N 10 mg/mL) was >7 days and the “Dissolution After Heating” value (100% Mineral Oil, M4N 10 mg/mL, 60° C.) was “Y at 60 °C”. For the same molecule, the “Stability Time at Room Temperature” value (100% Mineral Oil, M4N 50 mg/mL) was <1 days, the “Dissolution After Heating” value (100% Mineral Oil, M4N 50 mg/mL, 60° C.) was “Y at 60 °C” and the “Dissolution After Heating” value (100% Mineral Oil, M4N 100 mg/mL, 60° C.) was “Y at 60 °C”. The “Dissolution After Heating” value (100% Mineral Oil, M4N 200 mg/mL, 60° C.) was “Y at 60 °C”, the “Dissolution After Heating” value (100% Olive Oil, M4N 30 mg/mL, 60° C.) was “Y at 60 °C” and the “Stability Time at Room Temperature” value (100% Sesame Oil, M4N 10 mg/mL) was >3 days. For the same molecule, the “Stability Time at Room Temperature” value (100% Sesame Oil, M4N 20 mg/mL) was >3 days, the “Dissolution After Heating” value (100% Sesame Oil, M4N 20 mg/mL, 60° C.) was “Y at 60 °C” and the “Stability Time at Room Temperature” value (100% Sesame Oil, M4N 30 mg/mL) was <3 days. The “Dissolution After Heating” value (100% Sesame Oil, M4N 30 mg/mL, 60° C.) was “Y at 60 °C”, the “Stability Time at Room Temperature” value (100% Sesame Oil, M4N 50 mg/mL) was <1 days and the “Dissolution After Heating” value (100% Sesame Oil, M4N 50 mg/mL, 60° C.) was “Y at 60 °C”. For the same molecule, the “Stability Time at Room Temperature” value (100% Soybean Oil, M4N 10 mg/mL) was >7 days, the “Dissolution After Heating” value (100% Soybean Oil, M4N 10 mg/mL, 60° C.) was “Y at 60 °C” and the “Dissolution After Heating” value (100% Soybean Oil, M4N 30 mg/mL, 60° C.) was “Y at 60 °C”. The “Dissolution After Heating” value (100% Soybean Oil, M4N 50 mg/mL, 60° C.) was “Y at 60 °C”, the “Stability Time at Room Temperature” value (Peppermint Oil, M4N 1 mg/mL) was >3 days and the “Stability Time at Room Temperature” value (Peppermint Oil, M4N 10 mg/mL) was >3 days.
